In patent US6353019B1, “Macrocyclic lactones, compositions, and methods of use” (United States of America as represented by the Department …, priority 1997, dated 2002):

Experiments:
Assay type in all cases: cell-based, human
Conditions in all cases: averaged, quadruplicate testing, 48 h, SRB
EKVX = assay: NCI 60 cell-line screen, EKVX (Lung)
Description: (§1) The NCI screen consists of a panel of 60 different human tumor cell lines against which compounds are tested over a defined range of concentrations to determine the relative degree of growth inhibition or cytotoxicity against each cell line. The design and operation of the screen is such that for each compound tested, both the absolute and relative sensitivities of individual cell lines comprising the screen are sufficiently reproducible that a characteristic profile or “fingerprint” of cellular response is generated. Compounds which are active in the NCI screen show pronounced differential tumor growth-inhibitory and/or cytotoxic effects to the diverse cell lines comprising the 60 cell-line panel. The degree of differential response between the most and least sensitive lines typically may be relatively small (e.g., 2- to 10-fold), or occasionally as great as 3-4 orders of magnitude. […]
(§2) In the screening assay, each agent is tested over a broad concentration range against every cell line in the panel. […] Test compounds are evaluated at five 10-fold dilutions. […] Optical densities are measured on automated plate readers, followed by computerized data acquisition, processing, storage, and availability for display and analysis. […]

KM12 = assay: NCI 60 cell-line screen, KM12 (Colon)
Description: as §1, §2

MDA-MB-231/ATCC = assay: NCI 60 cell-line screen, MDA-MB-231/ATCC (Breast)
Description: as §1, §2

U251 = assay: NCI 60 cell-line screen, U251 (Brain)
Description: as §1, §2

NCI-H226 = assay: NCI 60 cell-line screen, NCI-H226 (Lung)
Description: as §1, §2

HCC-2998 = assay: NCI 60 cell-line screen, HCC-2998 (Colon)
Description: as §1, §2

IGROVI = assay: NCI 60 cell-line screen, IGROVI (Ovary)
Description: as §1, §2

T-47D = assay: NCI 60 cell-line screen, T-47D (Breast)
Description: as §1, §2

DU-145 = assay: NCI 60 cell-line screen, DU-145 (Prostate)
Description: as §1, §2

OVCAR-5 = assay: NCI 60 cell-line screen, OVCAR-5 (Ovary)
Description: as §1, §2

HT29 = assay: NCI 60 cell-line screen, HT29 (Colon)
Description: as §1, §2

CCRF-CEM = assay: NCI 60 cell-line screen, CCRF-CEM (Leukemia)
Description: as §1, §2

SF-268 = assay: NCI 60 cell-line screen, SF-268 (Brain)
Description: as §1, §2

SR = assay: NCI 60 cell-line screen, SR (Leukemia)
Description: as §1, §2

UACC-257 = assay: NCI 60 cell-line screen, UACC-257 (Melanoma)
Description: as §1, §2

SF-295 = assay: NCI 60 cell-line screen, SF-295 (Brain)
Description: as §1, §2

MCF-7 = assay: NCI 60 cell-line screen, MCF-7 (Breast)
Description: as §1, §2

M14 = assay: NCI 60 cell-line screen, M14 (Melanoma)
Description: as §1, §2

SNB-19 = assay: NCI 60 cell-line screen, SNB-19 (Brain)
Description: as §1, §2

A549/ATCC = assay: NCI 60 cell-line screen, A549/ATCC (Lung)
Description: as §1, §2

MCF-7-ADR-RES = assay: NCI 60 cell-line screen, MCF-7-ADR-RES (Breast)
Description: as §1, §2

LOX-IMVI = assay: NCI 60 cell-line screen, LOX-IMVI (Melanoma)
Description: as §1, §2

SK-MEL-2 = assay: NCI 60 cell-line screen, SK-MEL-2 (Melanoma)
Description: as §1, §2

MDA-MB-435 = assay: NCI 60 cell-line screen, MDA-MB-435 (Breast)
Description: as §1, §2

RPMI-8226 = assay: NCI 60 cell-line screen, RPMI-8226 (Leukemia)
Description: as §1, §2

HL-60-TB = assay: NCI 60 cell-line screen, HL-60-TB (Leukemia)
Description: as §1, §2

## salicylihalamide A
EKVX
  negative log10 GI50: 7.52
KM12
  negative log10 GI50: 8.30
MDA-MB-231/ATCC
  negative log10 GI50: 6.92
U251
  negative log10 GI50: 7.57
NCI-H226
  negative log10 GI50: 8.80
HCC-2998
  negative log10 GI50: 6.74
IGROVI
  negative log10 GI50: 7.89
T-47D
  negative log10 GI50: 8.34
DU-145
  negative log10 GI50: 8.26
OVCAR-5
  negative log10 GI50: 8.11
HT29
  negative log10 GI50: 8.54
CCRF-CEM
  negative log10 GI50: 7.89
SF-268
  negative log10 GI50: 7.55
SR
  negative log10 GI50: 8.44
UACC-257
  negative log10 GI50: 8.47
SF-295
  negative log10 GI50: 8.96
MCF-7
  negative log10 GI50: 7.12
M14
  negative log10 GI50: 8.92
SNB-19
  negative log10 GI50: 6.47
A549/ATCC
  negative log10 GI50: 8.54
MCF-7-ADR-RES
  negative log10 GI50: 8.07
LOX-IMVI
  negative log10 GI50: 9.11
SK-MEL-2
  negative log10 GI50: 7.47
MDA-MB-435
  negative log10 GI50: 7.82
RPMI-8226
  negative log10 GI50: 7.89
HL-60-TB
  negative log10 GI50: 9.04
